According to publication PMC6930524, “A Prospective Repurposing of Dantrolene as a Multitarget Agent for Alzheimer’s Disease” (Molecules, 2019):

Tests used:
MAO B, human enzyme = biological target: MAO B, human enzyme; set-up: method as in PMID 22282722; details: competitive inhibition; cited from earlier work
[1] = DPPH radical scavenging assay; format: physicochemical; details: compound 50 μM, DPPH 100 μM
Text: (§1) Starting from these evidences, we tested DAN in two in vitro models of radical scavenging activity, i.e., the 1,1-diphenyl-2-picryl-hydrazyl (DPPH) and 2,2′-azinobis-(3-ethylbenzothiazoline-6-sulfonic acid) (ABTS) free radical production. Both generate stable nitrogen radicals showing high absorption in visible spectrum, thus allowing easy and straightforward spectrophotometric measures. […] It can be assumed that the antioxidant activity of DAN is independent from its radical scavenging properties.
(§2) Already published protocols for DPPH and […] radical scavenging were used. The scavenging of the radical DPPH^·, or the monocation radical ABTS^·+, were determined by measuring the loss of absorbance at 515 or 755 nm, respectively. Samples were prepared in clear polystyrene flat-bottomed 96-well microplates. […] A preliminary absorbance reading at 755 nm allowed to determine the actual ABTS^·+ concentration (normally 60–70 μM; extinction coefficient ε = 12,000) and set the final concentration of inhibitors to 0.2[ABTS^·+]. 215 μL of ABTS^·+ solution were mixed with 35 μL of stock solution of inhibitors and the decrease in absorbance was monitored. Antioxidant activity was determined from Equation (2) as the percentage of radical production of inhibitor containing samples, compared with control: % radical production = 100 × ABSsample/ABScontrol(2)

[2] = ABTS radical scavenging assay; format: physicochemical; details: compound at 0.2·[ABTS+]
Text: as §1, §2

SMILES | Ki for human MAO B (competitive) (MAO B, human enzyme) | DPPH radical scavenging activity [1] | ABTS radical scavenging activity [2]
CCc1ccc(CCOc2ccc(CC3SC(=O)NC3=O)cc2)nc1 (stereo not shown) [pioglitazone] | submicromolar |  | 
O=c1c(O)c(-c2ccc(O)c(O)c2)oc2cc(O)cc(O)c12 [quercetin] |  | strong radical scavenger | strong radical scavenger
CN(CCOc1ccc(CC2SC(=O)NC2=O)cc1)c1ccccn1 (stereo not shown) [rosiglitazone] | low- |  | 
